US20140058103A1, “Inhibitors of PI3K-Delta and Methods of Their Use and Manufacture” (Exelixis, Inc., priority 2010, published 2014)

Biological target: PI3K delta (Homo sapiens, UniProt O00329)
Assay: Luciferase-coupled chemiluminescence kinase assay (ATP consumption, KinaseGlo)
Format: biochemical
Experimental: Kinase activity and compound inhibition were investigated using one or more of the assay formats described below. The ATP concentrations used in the various assays were approximately equal to or less than the KM for each of the respective kinases. Dose-response experiments were performed using an intra-plate dilution scheme with 10 different inhibitor concentrations in a 384-well microtiter plate. IC50 values were calculated by nonlinear regression analysis using the four-parameter equation listed below:
Y=min+(max−min)/(1+(X/IC50)^N) Equation 1
Typically N should approximate unity. Curve fitting was performed using XLFit or ActivityBase.
Kinase activity is measured as the percent of ATP consumed following the kinase reaction using luciferase-luciferin-coupled chemiluminescence. […] Kinase reactions were initiated by combining test compounds, kinase, and ATP in a 20 μL volume (6 μL volume for 1536-well plate). The reaction mixture was incubated at ambient temperature for 2 h. Following the kinase reaction, a 20 μL (or […] for 1536-well plate) aliquot of KinaseGlo (Promega) was added and the chemiluminescence signal measured using an EnVision plate reader (Perkin Elmer).

Chain of PI3K delta (O00329 whole entry): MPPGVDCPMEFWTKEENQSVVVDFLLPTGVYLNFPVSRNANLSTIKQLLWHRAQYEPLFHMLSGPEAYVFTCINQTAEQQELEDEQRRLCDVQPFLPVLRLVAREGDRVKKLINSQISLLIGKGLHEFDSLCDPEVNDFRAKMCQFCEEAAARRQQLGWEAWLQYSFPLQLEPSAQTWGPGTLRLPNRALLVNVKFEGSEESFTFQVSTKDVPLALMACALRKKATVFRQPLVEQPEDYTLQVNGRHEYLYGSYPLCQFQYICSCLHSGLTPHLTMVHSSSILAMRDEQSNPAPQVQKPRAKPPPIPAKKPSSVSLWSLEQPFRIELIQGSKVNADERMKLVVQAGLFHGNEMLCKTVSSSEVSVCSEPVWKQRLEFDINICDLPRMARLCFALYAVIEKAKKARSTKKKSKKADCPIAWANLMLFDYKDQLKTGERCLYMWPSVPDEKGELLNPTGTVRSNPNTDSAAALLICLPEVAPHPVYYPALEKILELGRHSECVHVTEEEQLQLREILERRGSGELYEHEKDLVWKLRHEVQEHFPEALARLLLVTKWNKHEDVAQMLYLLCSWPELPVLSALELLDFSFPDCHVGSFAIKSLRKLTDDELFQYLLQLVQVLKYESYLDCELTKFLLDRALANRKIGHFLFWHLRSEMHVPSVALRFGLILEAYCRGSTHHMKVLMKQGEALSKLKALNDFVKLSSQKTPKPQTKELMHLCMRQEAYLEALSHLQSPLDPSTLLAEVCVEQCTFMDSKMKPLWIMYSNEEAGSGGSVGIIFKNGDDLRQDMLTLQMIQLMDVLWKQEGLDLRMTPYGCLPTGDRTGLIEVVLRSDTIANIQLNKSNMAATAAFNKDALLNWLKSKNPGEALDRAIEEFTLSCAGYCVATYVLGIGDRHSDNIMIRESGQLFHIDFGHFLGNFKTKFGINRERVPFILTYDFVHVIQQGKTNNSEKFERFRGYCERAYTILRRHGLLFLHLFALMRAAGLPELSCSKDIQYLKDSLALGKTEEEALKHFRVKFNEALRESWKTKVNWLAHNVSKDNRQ
Chain of PI3K delta (P27986 whole entry partner): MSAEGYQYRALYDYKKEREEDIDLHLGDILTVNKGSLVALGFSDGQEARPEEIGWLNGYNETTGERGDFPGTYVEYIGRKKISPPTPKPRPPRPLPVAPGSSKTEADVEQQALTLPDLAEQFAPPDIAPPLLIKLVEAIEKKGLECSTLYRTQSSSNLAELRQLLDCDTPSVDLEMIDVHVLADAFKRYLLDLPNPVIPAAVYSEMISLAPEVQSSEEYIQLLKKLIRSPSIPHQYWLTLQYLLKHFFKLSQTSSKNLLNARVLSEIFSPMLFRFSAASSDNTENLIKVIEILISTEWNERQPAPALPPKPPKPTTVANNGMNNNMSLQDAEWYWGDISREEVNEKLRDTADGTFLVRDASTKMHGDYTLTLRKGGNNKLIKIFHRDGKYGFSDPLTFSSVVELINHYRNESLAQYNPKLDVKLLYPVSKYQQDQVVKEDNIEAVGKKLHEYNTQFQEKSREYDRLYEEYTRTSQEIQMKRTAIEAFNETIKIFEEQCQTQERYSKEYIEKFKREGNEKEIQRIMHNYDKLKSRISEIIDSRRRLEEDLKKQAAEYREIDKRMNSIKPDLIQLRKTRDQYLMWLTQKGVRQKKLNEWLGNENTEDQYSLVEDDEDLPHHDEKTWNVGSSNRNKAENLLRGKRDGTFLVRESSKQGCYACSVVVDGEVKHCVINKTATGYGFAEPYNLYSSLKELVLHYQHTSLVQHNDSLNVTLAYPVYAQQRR

SMILES	IC50
Cn1c(-c2cnco2)nc2c(N3CCC(n4c(=O)[nH]c5ccccc54)CC3)ncnc21 [Compound 135, 1-{1-[9-methyl-8-(1,3-oxazol-5-yl)-9H-purin-6-yl]piperidin-4-yl}-1,3-dihydro-2H-benzimidazol-2-one]	0.05 to 0.25 µM
Cn1cc(-c2nc3c(N4CCN(S(=O)(=O)c5cccc(Cl)c5Cl)CC4)ncnc3n2C)cn1 [Compound 389, 6-{4-[(2,3-dichlorophenyl)sulfonyl]piperazin-1-yl}-9-methyl-8-(1-methyl-1H-pyrazol-4-yl)-9H-purine]	0.25 to 0.5 µM
Cn1c(C(=O)NCC2CCCOC2)nc2c(N3CCC(n4c(=O)[nH]c5ccccc54)CC3)ncnc21 (stereo not shown) [Compound 11, 9-methyl-6-[4-(2-oxo-2,3-dihydro-1H-benzimidazol-1-yl)piperidin-1-yl]-N-(tetrahydro-2H-pyran-3-ylmethyl)-9H-purine-8-carboxamide]	0.25 to 0.5 µM
Cn1c(C(=O)NCCO)nc2c(N3CCC(n4c(=O)[nH]c5ccccc54)CC3)ncnc21 [Compound 55, N-(2-hydroxyethyl)-9-methyl-6-[4-(2-oxo-2,3-dihydro-1H-benzimidazol-1-yl)piperidin-1-yl]-9H-purine-8-carboxamide]	0.05 to 0.25 µM
Cc1nc(-c2ccccc2)n(OCC2CCN(c3ncnc4c3nc(-c3cnn(C)c3)n4C)CC2)c1C [Compound 2, 6-(4-(((4,5-Dimethyl-2-phenyl-1H-imidazol-1-yl)oxy)methyl)piperidin-1-yl)-9-methyl-8-(1-methyl-M-pyrazol-4-yl)-9H-purine]	0.5 to 1.5 µM
Cn1cc(-c2nc3c(N4CCN(S(=O)(=O)c5cccc(C(F)(F)F)c5)CC4)ncnc3n2C)cn1 [Compound 377, 9-methyl-8-(1-methyl-1H-pyrazol-4-yl)-6-(4-{[3-(trifluoromethyl)phenyl]sulfonyl}-piperazin-1-yl)-9H-purine]	0.25 to 0.5 µM
Cn1c(C(=O)NCC2CC2)nc2c(N3CCN(C4=NS(=O)(=O)c5ccccc54)CC3)ncnc21 [Compound 264, N-(cyclopropylmethyl)-6-[4-(1,1-dioxido-1,2-benzisothiazol-3-yl)piperazin-1-yl]-9-methyl-9H-purine-8-carboxamide]	0.5 to 1.5 µM
Cn1c(C(=O)NCc2ccco2)nc2c(N3CCC4(CC3)C(=O)Nc3ccccc34)ncnc21 [Compound 17, N-(furan-2-ylmethyl)-9-methyl-6-(2-oxo-1,2-dihydro-1′H-spiro[indole-3,4′-piperidin]-1′-yl)-9H-purine-8-carboxamide]	0.05 to 0.25 µM
Cn1c(C(=O)NCC2CC2)nc2c(N3CCC4(CC3)OC(=O)c3ccccc34)ncnc21 [Compound 138, N-(cyclopropylmethyl)-9-methyl-6-(3-oxo-1′H,3H-spiro[2-benzofuran-1,4′-piperidin]-1′-yl)-9H-purine-8-carboxamide]	0.5 to 1.5 µM
CCCCCNC(=O)c1nc2c(N3CCC(n4c(=O)[nH]c5ccccc54)CC3)ncnc2n1C [Compound 70, 9-methyl-6-[4-(2-oxo-2,3-dihydro-1H-benzimidazol-1-yl)piperidin-1-yl]-N-pentyl-9H-purine-8-carboxamide]	0.25 to 0.5 µM
Cn1c(C(=O)NCC2CC2)nc2c(N3CCC(n4c(=O)[nH]c5c(F)cccc54)CC3)ncnc21 [Compound 278, N-(cyclopropylmethyl)-6-[4-(4-fluoro-2-oxo-2,3-dihydro-1H-benzimidazol-1-yl)piperidin-1-yl]-9-methyl-9H-purine-8-carboxamide]	0.05 to 0.25 µM
CC(C)CCNC(=O)c1nc2c(N3CCC4(CC3)C(=O)Nc3ccccc34)ncnc2n1C [Compound 40, 9-methyl-N-(3-methylbutyl)-6-(2-oxo-1,2-dihydro-1′H-spiro[indole-3,4′-piperidin]-1′-yl)-9H-purine-8-carboxamide]	0.05 to 0.25 µM
CCCC(=O)c1nc2c(N3CCC(n4c(=O)[nH]c5ccccc54)CC3)ncnc2n1C [Compound 113, 1-[1-(8-butanoyl-9-methyl-9H-purin-6-yl)piperidin-4-yl]-1,3-dihydro-2H-benzimidazol-2-one]	0.05 to 0.25 µM
CCn1c(C(=O)NC(C)C2CC2)nc2c(N3CCC4(CC3)C(=O)Nc3ccccc34)ncnc21 (stereo not shown) [Compound 214, N-(1-cyclopropylethyl)-9-ethyl-6-(2-oxo-1,2-dihydro-1′H-spiro[indole-3,4′-piperidin]-1′-yl)-9H-purine-8-carboxamide]	< 0.05 µM
Cn1c(C(=O)NCC2CC2)nc2c(N3CCC(n4c(=O)[nH]c5c(Cl)cccc54)CC3)ncnc21 [Compound 230, 6-[4-(4-chloro-2-oxo-2,3-dihydro-1H-benzimidazol-1-yl)piperidin-1-yl]-N-(cyclopropylmethyl)-9-methyl-9H-purine-8-carboxamide]	0.05 to 0.25 µM
CCn1c(-c2cnc(C)nc2)nc2c(N3CCC(n4c(=O)[nH]c5ccccc54)CC3)ncnc21 [Compound 342, 1-{1-[9-ethyl-8-(2-methylpyrimidin-5-yl)-9H-purin-6-yl]piperidin-4-yl}-1,3-dihydro-2H-benzimidazol-2-one]	< 0.05 µM
CCn1cc(-c2nc3c(N4CCC(n5c(=O)[nH]c6ncccc65)CC4)ncnc3n2C)cn1 [Compound 322, 1-{1-[8-(1-ethyl-1H-pyrazol-4-yl)-9-methyl-9H-purin-6-yl]piperidin-4-yl}-1,3-dihydro-2H-imidazo[4,5-b]pyridin-2-one]	< 0.05 µM
CCn1c(C(=O)NC(C)C)nc2c(N3CCC(n4c(=O)[nH]c5ccccc54)CC3)ncnc21 [Compound 196, 9-ethyl-N-(1-methylethyl)-6-[4-(2-oxo-2,3-dihydro-1H-benzimidazol-1-yl)piperidin-1-yl]-9H-purine-8-carboxamide]	< 0.05 µM
Cn1cc(-c2nc3c(N4CCN(S(=O)(=O)c5cccnc5Cl)CC4)ncnc3n2C)cn1 [Compound 390, 6-{4-[(2-chloropyridin-3-yl)sulfonyl]piperazin-1-yl}-9-methyl-8-(1-methyl-1H-pyrazol-4-yl)-9H-purine]	0.5 to 1.5 µM
CC(C)CNC(=O)c1nc2c(N3CCC(n4c(=O)[nH]c5ccccc54)CC3)ncnc2n1CC(F)(F)F [Compound 183, N-(2-methylpropyl)-6-[4-(2-oxo-2,3-dihydro-1H-benzimidazol-1-yl)piperidin-1-yl]-9-(2,2,2-trifluoroethyl)-9H-purine-8-carboxamide]	0.25 to 0.5 µM

Further lines, results first:

IC50	SMILES
< 0.05 µM	Cn1c(C(=O)N[C@H]2CC[C@H](O)CC2)nc2c(N3CCC(n4c(=O)[nH]c5ccccc54)CC3)ncnc21 [Compound 111, N-(trans-4-hydroxycyclohexyl)-9-methyl-6-[4-(2-oxo-2,3-dihydro-1H-benzimidazol-1-yl)piperidin-1-yl]-9H-purine-8-carboxamide]
< 0.05 µM	C=C(C)c1cn(-c2nc3c(N4CCC(n5c(=O)[nH]c6ccccc65)CC4)ncnc3n2C)cn1 [Compound 167, 1-(1-{9-methyl-8-[4-(1-methylethenyl)-1H-imidazol-1-yl]-9H-purin-6-yl}piperidin-4-yl)-1,3-dihydro-2H-benzimidazol-2-one]
< 0.05 µM	CCn1c(C(=O)N2CCC(F)(F)C2)nc2c(N3CCC(n4c(=O)[nH]c5ccccc54)CC3)ncnc21 [Compound 191, 1-(1-{8-[(3,3-difluoropyrrolidin-1-yl)carbonyl]-9-ethyl-9H-purin-6-yl}piperidin-4-yl)-1,3-dihydro-2H-benzimidazol-2-one]
< 0.05 µM	Cc1[nH]ncc1-c1nc2c(N3CCC(n4c(=O)[nH]c5ccccc54)CC3)ncnc2n1C [Compound 242, 1-{1-[9-methyl-8-(5-methyl-1H-pyrazol-4-yl)-9H-purin-6-yl]piperidin-4-yl}-1,3-dihydro-2H-benzimidazol-2-one]
< 0.05 µM	CCn1cc(-c2nc3c(N4CCC(n5c(=O)[nH]c6ccccc65)CC4)ncnc3n2C)cn1 [Compound 146, 1-{1-[8-(1-Ethyl-1H-pyrazol-4-yl)-9-methyl-9H-purin-6-yl]piperidin-4-yl}-1,3-dihydro-2H-benzimidazol-2-one]
< 0.05 µM	CCn1c(C(=O)N2CC[C@@H](F)C2)nc2c(N3CCC4(CC3)C(=O)Nc3ccccc34)ncnc21 [Compound 213]
< 0.05 µM	CCn1c(-c2cnn(C)c2C)nc2c(N3CCC4(CC3)C(=O)Nc3ccccc34)ncnc21 [Compound 261, 1′-[8-(1,5-dimethyl-1H-pyrazol-4-yl)-9-ethyl-9H-purin-6-yl]spiro[indole-3,4′-piperidin]-2(1H)-one]
< 0.05 µM	Cn1c(-c2ccc(N)nc2)nc2c(N3CCC(n4c(=O)[nH]c5ncccc54)CC3)ncnc21 [Compound 343, 1-{1-[8-(6-aminopyridin-3-yl)-9-methyl-9H-purin-6-yl]piperidin-4-yl}-1,3-dihydro-2H-imidazo[4,5-b]pyridin-2-one]
< 0.05 µM	COC(=O)[C@@H]1CN(c2ncnc3c2nc(-c2cnn(C)c2)n3C)CC[C@H]1n1c(=O)[nH]c2ccccc21 [Compound 334, methyl (3R,4R)-1-[9-methyl-8-(1-methyl-1H-pyrazol-4-yl)-9H-purin-6-yl]-4-(2-oxo-2,3-dihydro-1H-benzimidazol-1-yl)piperidine-3-carboxylate]
< 0.05 µM	CCn1c(C(=O)NCC(C)(C)C)nc2c(N3CCC(n4c(=O)[nH]c5ccccc54)CC3)ncnc21 [Compound 190, N-(2,2-dimethylpropyl)-9-ethyl-6-[4-(2-oxo-2,3-dihydro-1H-benzimidazol-1-yl)piperidin-1-yl]-9H-purine-8-carboxamide]
< 0.05 µM	CCn1c(C(=O)NC2CCC2)nc2c(N3CCC(n4c(=O)[nH]c5ccccc54)CC3)ncnc21 [Compound 194, N-cyclobutyl-9-ethyl-6-[4-(2-oxo-2,3-dihydro-1H-benzimidazol-1-yl)piperidin-1-yl]-9H-purine-8-carboxamide]
